{
  "source": "EPA's ToxRefDB 2",
  "key": {"mouse": {"tested_on": "mouse", "conditions": "Carcinogenicity, cd1, Oral, Feed, dose end: 87 week, group: systemic"}, "dog [1]": {"tested_on": "dog", "conditions": "Subchronic oral toxicity in nonrodent, beagle, Capsule, dose end: 13 week"}, "rat [2]": {"tested_on": "rat", "conditions": "Prenatal developmental toxicity study, sprague dawley, Oral, Gavage/Intubation, dose end: 15 GD"}, "dog [3]": {"tested_on": "dog", "conditions": "Chronic toxicity, beagle, Oral, Capsule, dose end: 52 week, group: systemic"}, "rat [4]": {"tested_on": "rat", "conditions": "Combined chronic toxicity/carcinogenicity, sprague dawley, Oral, Feed, dose end: 734 day, group: systemic"}, "rat [5]": {"tested_on": "rat", "conditions": "Subchronic oral toxicity in rodents, sprague dawley, Feed, dose end: 90 day, group: systemic"}, "rat [6]": {"tested_on": "rat", "conditions": "Prenatal developmental toxicity study, sprague dawley, Oral, Feed, dose end: 20 GD"}, "rat [7]": {"tested_on": "rat", "conditions": "Developmental neurotoxicity range-finding study; sprague dawley; Oral; Feed; dose end: 22 PND; group: cannot be grouped; systemic / in life observation / clinical signs / tremors"}, "[8]": {"conditions": "systemic / in life observation / clinical signs / tremors"}, "[9]": {"conditions": "systemic / pathology microscopic / testes / degeneration"}, "[10]": {"conditions": "group: maternal, reproductive / reproductive performance / estrous cycle / abnormal"}, "[11]": {"conditions": "group: systemic, systemic / in life observation / clinical signs / tremors + systemic / in life observation / body weight / body weight gain + systemic / in …"}, "[12]": {"conditions": "group: developmental, developmental / developmental malformation / ureter / hydroureter"}, "[13]": {"conditions": "group: maternal, systemic / in life observation / clinical signs / tremors"}, "[14]": {"conditions": "systemic / in life observation / clinical signs / tremors + systemic / hematology / erythrocyte (rbc) count differential / erythrocyte (rbc…"}, "[15]": {"conditions": "group: developmental, developmental / developmental malformation / bone / unossified"}, "[16]": {"conditions": "group: maternal, systemic / in life observation / body weight / body weight gain + systemic / in life observation / clinical signs / hypersensitivity + …"}},
  "data": [
    {"smiles": "Cc1c(COC(=O)[C@@H]2[C@H](/C=C(\\Cl)C(F)(F)F)C2(C)C)cccc1-c1ccccc1", "note": "[Bifenthrin]", "values": [
      {"measurement": "LOAEL", "setting": "mouse; [8]", "result": 25.6, "unit": "mg/kg/day"},
      {"measurement": "NOAEL", "setting": "mouse; systemic / in life observation / clinical signs / tremors + systemic / pathology microscopic / liver / adenoma/carcinoma combined + systemic…", "result": 6.7, "unit": "mg/kg/day"},
      {"measurement": "LEL", "setting": "mouse; [9]", "result": 6.7, "unit": "mg/kg/day"},
      {"measurement": "NEL", "setting": "mouse; [9]", "result": "< 6.7", "unit": "mg/kg/day"},
      {"measurement": "LEL", "setting": "dog [1]; [10]", "result": 10, "unit": "mg/kg/day"},
      {"measurement": "LOAEL", "setting": "dog [1]; [10]", "result": "> 20", "unit": "mg/kg/day"},
      {"measurement": "NEL", "setting": "dog [1]; [10]", "result": 5, "unit": "mg/kg/day"},
      {"measurement": "NOAEL", "setting": "dog [1]; [10]", "result": "≥ 20", "unit": "mg/kg/day"},
      {"measurement": "LOAEL", "setting": "dog [1]; group: systemic, systemic / in life observation / clinical signs / tremors", "result": 5, "unit": "mg/kg/day"},
      {"measurement": "NEL", "setting": "dog [1]; [11]", "result": 2.5, "unit": "mg/kg/day"},
      {"measurement": "NOAEL", "setting": "dog [1]; [11]", "result": 2.5, "unit": "mg/kg/day"},
      {"measurement": "LEL", "setting": "dog [1]; group: systemic, systemic / in life observation / clinical signs / tremors + systemic / in life observation / clinical signs / ataxia", "result": 5, "unit": "mg/kg/day"},
      {"measurement": "LEL", "setting": "rat [2]; [12]", "result": 2, "unit": "mg/kg/day"},
      {"measurement": "LOAEL", "setting": "rat [2]; [12]", "result": 2, "unit": "mg/kg/day"},
      {"measurement": "NEL", "setting": "rat [2]; [12]", "result": 1, "unit": "mg/kg/day"},
      {"measurement": "NOAEL", "setting": "rat [2]; [12]", "result": 1, "unit": "mg/kg/day"},
      {"measurement": "LEL", "setting": "rat [2]; [13]", "result": 2, "unit": "mg/kg/day"},
      {"measurement": "LOAEL", "setting": "rat [2]; [13]", "result": 2, "unit": "mg/kg/day"},
      {"measurement": "NEL", "setting": "rat [2]; [13]", "result": 1, "unit": "mg/kg/day"},
      {"measurement": "NOAEL", "setting": "rat [2]; [13]", "result": 1, "unit": "mg/kg/day"},
      {"measurement": "LOAEL", "setting": "dog [3]; [8]", "result": 3, "unit": "mg/kg/day"},
      {"measurement": "LEL", "setting": "dog [3]; systemic / in life observation / clinical signs / tremors + systemic / clinical chemistry / sodium / sodium", "result": 3, "unit": "mg/kg/day"},
      {"measurement": "NEL", "setting": "dog [3]; [14]", "result": 1.5, "unit": "mg/kg/day"},
      {"measurement": "NOAEL", "setting": "dog [3]; [14]", "result": 1.5, "unit": "mg/kg/day"},
      {"measurement": "LOAEL", "setting": "rat [4]; [8]", "result": 6.1, "unit": "mg/kg/day"},
      {"measurement": "NOAEL", "setting": "rat [4]; systemic / in life observation / clinical signs / tremors + systemic / in life observation / body weight / body weight + systemic / in life …", "result": 3, "unit": "mg/kg/day"},
      {"measurement": "LEL", "setting": "rat [4]; systemic / organ weight / kidney / relative to body weight + systemic / organ weight / liver / relative to body weight", "result": 4.7, "unit": "mg/kg/day"},
      {"measurement": "NEL", "setting": "rat [4]; systemic / organ weight / kidney / relative to body weight + systemic / organ weight / liver / relative to body weight + systemic / in life …", "result": 2.3, "unit": "mg/kg/day"},
      {"measurement": "NEL", "setting": "rat [5]; systemic / in life observation / body weight / body weight + systemic / in life observation / body weight / body weight gain", "result": 17.2, "unit": "mg/kg/day"},
      {"measurement": "LOAEL", "setting": "rat [5]; [8]", "result": 7.5, "unit": "mg/kg/day"},
      {"measurement": "NOAEL", "setting": "rat [5]; systemic / in life observation / clinical signs / tremors + systemic / clinical chemistry / potassium / potassium + systemic / clinical …", "result": 3.8, "unit": "mg/kg/day"},
      {"measurement": "LEL", "setting": "rat [6]; [15]", "result": 16.3, "unit": "mg/kg/day"},
      {"measurement": "LOAEL", "setting": "rat [6]; [15]", "result": "> 16.3", "unit": "mg/kg/day"},
      {"measurement": "NEL", "setting": "rat [6]; [15]", "result": 7.4, "unit": "mg/kg/day"},
      {"measurement": "NOAEL", "setting": "rat [6]; [15]", "result": "≥ 16.3", "unit": "mg/kg/day"},
      {"measurement": "LEL", "setting": "rat [6]; [16]", "result": 16.3, "unit": "mg/kg/day"},
      {"measurement": "LOAEL", "setting": "rat [6]; [16]", "result": 16.3, "unit": "mg/kg/day"},
      {"measurement": "NEL", "setting": "rat [6]; [16]", "result": 7.4, "unit": "mg/kg/day"},
      {"measurement": "NOAEL", "setting": "rat [6]; [16]", "result": 7.4, "unit": "mg/kg/day"},
      {"measurement": "LEL", "setting": "rat [7]", "result": 9.3, "unit": "mg/kg/day"},
      {"measurement": "LOAEL", "setting": "rat [7]", "result": "> 9.3", "unit": "mg/kg/day"},
      {"measurement": "NEL", "setting": "rat [7]", "result": 7.4, "unit": "mg/kg/day"},
      {"measurement": "NOAEL", "setting": "rat [7]", "result": "≥ 9.3", "unit": "mg/kg/day"}
    ]}
  ]
}
